#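 1) Cells in 96-well plates. 2) Compound, 48 h, 5 concentrations. 3) Linear interpolation between surrounding doses. 4) Unreached endpoint = highest concentration. TGI marks complete inhibition of growth.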
# How the values were obtained:
# Test in all cases: growth of human tumour cells (NCI), 48 h
# A549 NSCLC = test system: A549 NSCLC
# HOP-18 NSCLC = test system: HOP-18 NSCLC
# NCI-H522 lung = test system: NCI-H522 lung
# EKVX NSCLC = test system: EKVX NSCLC
# SW-620 colon = test system: SW-620 colon
# RPMI-8226 leukemia = test system: RPMI-8226 leukemia
# DMS 273 small cell lung = test system: DMS 273 small cell lung
# HOP-92 NSCLC = test system: HOP-92 NSCLC
# M19-MEL melanoma = test system: M19-MEL melanoma
# ACHN renal = test system: ACHN renal
# SN12C renal = test system: SN12C renal
# UO-31 renal = test system: UO-31 renal
# LOX IMVI melanoma = test system: LOX IMVI melanoma
# SNB-19 CNS = test system: SNB-19 CNS
# SK-MEL-5 melanoma = test system: SK-MEL-5 melanoma
# K-562 leukemia = test system: K-562 leukemia
# HCC-2998 colon = test system: HCC-2998 colon
# NCI-H226 lung = test system: NCI-H226 lung
# MALME-3M melanoma = test system: MALME-3M melanoma
# MOLT-4 leukemia = test system: MOLT-4 leukemia
# SNB-75 CNS = test system: SNB-75 CNS
# KM20L2 colon = test system: KM20L2 colon
# M14 melanoma = test system: M14 melanoma
# SNB-78 CNS = test system: SNB-78 CNS
# OVCAR-8 ovarian = test system: OVCAR-8 ovarian
# U251 CNS = test system: U251 CNS
# KM12 colon = test system: KM12 colon
# 786-0 renal = test system: 786-0 renal
# OVCAR-4 ovarian = test system: OVCAR-4 ovarian
# TK-10 renal = test system: TK-10 renal
# HCT-15 colon = test system: HCT-15 colon
# SF-539 CNS = test system: SF-539 CNS
# CAKI-1 renal = test system: CAKI-1 renal
# UACC-62 melanoma = test system: UACC-62 melanoma
# A498 renal = test system: A498 renal
# SK-OV-3 ovarian = test system: SK-OV-3 ovarian
# LXFL 529 NSCLC = test system: LXFL 529 NSCLC
# HCT-116 colon = test system: HCT-116 colon
# OVCAR-3 ovarian = test system: OVCAR-3 ovarian
# HL-60(TB) leukemia = test system: HL-60(TB) leukemia
# HT29 colon = test system: HT29 colon
# OVCAR-5 ovarian = test system: OVCAR-5 ovarian
# UACC-257 melanoma = test system: UACC-257 melanoma
# RXF 393 renal = test system: RXF 393 renal
# HOP-62 NSCLC = test system: HOP-62 NSCLC
# SF-295 CNS = test system: SF-295 CNS
# IGROV1 ovarian = test system: IGROV1 ovarian
# NCI-H460 lung = test system: NCI-H460 lung
# SF-268 CNS = test system: SF-268 CNS
# NCI-H23 lung = test system: NCI-H23 lung
# SK-MEL-2 melanoma = test system: SK-MEL-2 melanoma
# SK-MEL-28 melanoma = test system: SK-MEL-28 melanoma
# COLO 205 colon = test system: COLO 205 colon
# DMS 114 small cell lung = test system: DMS 114 small cell lung
# CCRF-CEM leukemia = test system: CCRF-CEM leukemia
# DLD-1 colon = test system: DLD-1 colon
# DU-145 prostate = test system: DU-145 prostate
# NCI/ADR-RES ovarian = test system: NCI/ADR-RES ovarian
# MDA-MB-231 breast = test system: MDA-MB-231 breast
# BT-549 breast = test system: BT-549 breast
# T-47D breast = test system: T-47D breast
# MDA-MB-435 = test system: MDA-MB-435
# PC-3 prostate = test system: PC-3 prostate
# MCF7 breast = test system: MCF7 breast
# SR leukemia = test system: SR leukemia
# XF 498 CNS = test system: XF 498 CNS
structure (smiles),measurement,setting,value
CC(C)N(C(=O)C12CC3CC(CC(C3)C1)C2)C(C)C,TGI,A549 NSCLC,> 50 µM
same,TGI,HOP-18 NSCLC,> 50 µM
same,TGI,NCI-H522 lung,> 50 µM
same,TGI,EKVX NSCLC,> 50 µM
same,TGI,SW-620 colon,> 50 µM
same,TGI,RPMI-8226 leukemia,> 50 µM
same,TGI,DMS 273 small cell lung,> 50 µM
same,TGI,HOP-92 NSCLC,> 50 µM
same,TGI,M19-MEL melanoma,> 50 µM
same,TGI,ACHN renal,> 50 µM
same,TGI,SN12C renal,> 50 µM
same,TGI,UO-31 renal,> 50 µM
same,TGI,LOX IMVI melanoma,> 50 µM
same,TGI,SNB-19 CNS,> 50 µM
same,TGI,SK-MEL-5 melanoma,> 50 µM
same,TGI,K-562 leukemia,> 50 µM
same,TGI,HCC-2998 colon,> 50 µM
same,TGI,NCI-H226 lung,> 50 µM
same,TGI,MALME-3M melanoma,> 50 µM
same,TGI,MOLT-4 leukemia,> 50 µM
same,TGI,SNB-75 CNS,> 50 µM
same,TGI,KM20L2 colon,> 50 µM
same,TGI,M14 melanoma,> 50 µM
same,TGI,SNB-78 CNS,> 50 µM
same,TGI,OVCAR-8 ovarian,> 50 µM
same,TGI,U251 CNS,> 50 µM
same,TGI,KM12 colon,> 50 µM
same,TGI,786-0 renal,> 50 µM
same,TGI,OVCAR-4 ovarian,> 50 µM
same,TGI,TK-10 renal,> 50 µM
same,TGI,HCT-15 colon,> 50 µM
same,TGI,SF-539 CNS,> 50 µM
same,TGI,CAKI-1 renal,> 50 µM
same,TGI,UACC-62 melanoma,> 50 µM
same,TGI,A498 renal,> 50 µM
same,TGI,SK-OV-3 ovarian,> 50 µM
same,TGI,LXFL 529 NSCLC,> 50 µM
same,TGI,HCT-116 colon,> 50 µM
same,TGI,OVCAR-3 ovarian,> 50 µM
same,TGI,HL-60(TB) leukemia,> 50 µM
same,TGI,HT29 colon,> 50 µM
same,TGI,OVCAR-5 ovarian,> 50 µM
same,TGI,UACC-257 melanoma,> 50 µM
same,TGI,RXF 393 renal,> 50 µM
same,TGI,HOP-62 NSCLC,> 50 µM
same,TGI,SF-295 CNS,> 50 µM
same,TGI,IGROV1 ovarian,> 50 µM
same,TGI,NCI-H460 lung,> 50 µM
same,TGI,SF-268 CNS,> 50 µM
same,TGI,NCI-H23 lung,> 50 µM
same,TGI,SK-MEL-2 melanoma,> 50 µM
same,TGI,SK-MEL-28 melanoma,> 50 µM
same,TGI,COLO 205 colon,> 50 µM
same,TGI,DMS 114 small cell lung,> 50 µM
same,TGI,CCRF-CEM leukemia,> 50 µM
same,TGI,DLD-1 colon,> 50 µM
COc1ccc(C(C)c2cc3c(cc2OC)OCO3)cc1 (stereo not drawn),TGI,A549 NSCLC,> 100 µM
same,TGI,HOP-18 NSCLC,> 100 µM
same,TGI,NCI-H522 lung,0.438 µM
same,TGI,EKVX NSCLC,> 100 µM
same,TGI,SW-620 colon,> 100 µM
same,TGI,RPMI-8226 leukemia,> 48.6 µM
same,TGI,DMS 273 small cell lung,1.29 µM
same,TGI,HOP-92 NSCLC,36 µM
same,TGI,M19-MEL melanoma,> 100 µM
same,TGI,DU-145 prostate,> 21.9 µM
same,TGI,ACHN renal,> 100 µM
same,TGI,SN12C renal,43.5 µM
same,TGI,UO-31 renal,> 100 µM
same,TGI,LOX IMVI melanoma,27.3 µM
same,TGI,SNB-19 CNS,> 100 µM
same,TGI,SK-MEL-5 melanoma,2.31 µM
same,TGI,K-562 leukemia,> 57.6 µM
same,TGI,HCC-2998 colon,3.62 µM
same,TGI,NCI-H226 lung,20.6 µM
same,TGI,MALME-3M melanoma,52.2 µM
same,TGI,MOLT-4 leukemia,> 60.6 µM
same,TGI,SNB-75 CNS,> 100 µM
same,TGI,KM20L2 colon,0.533 µM
same,TGI,M14 melanoma,24.5 µM
same,TGI,SNB-78 CNS,> 31.6 µM
same,TGI,OVCAR-8 ovarian,17.1 µM
same,TGI,U251 CNS,> 100 µM
same,TGI,KM12 colon,> 41 µM
same,TGI,786-0 renal,> 53.4 µM
same,TGI,NCI/ADR-RES ovarian,28.2 µM
same,TGI,OVCAR-4 ovarian,> 100 µM
same,TGI,TK-10 renal,> 100 µM
same,TGI,MDA-MB-231 breast,4.6 µM
same,TGI,HCT-15 colon,13.5 µM
same,TGI,SF-539 CNS,0.275 µM
same,TGI,CAKI-1 renal,> 100 µM
same,TGI,UACC-62 melanoma,> 69.2 µM
same,TGI,A498 renal,> 100 µM
same,TGI,BT-549 breast,> 100 µM
same,TGI,SK-OV-3 ovarian,27 µM
same,TGI,LXFL 529 NSCLC,> 42.7 µM
same,TGI,HCT-116 colon,46.3 µM
same,TGI,OVCAR-3 ovarian,0.598 µM
same,TGI,HL-60(TB) leukemia,2.87 µM
same,TGI,T-47D breast,> 100 µM
same,TGI,HT29 colon,0.43 µM
same,TGI,OVCAR-5 ovarian,> 100 µM
same,TGI,UACC-257 melanoma,> 75.5 µM
same,TGI,RXF 393 renal,> 100 µM
same,TGI,HOP-62 NSCLC,> 46.2 µM
same,TGI,IGROV1 ovarian,7.47 µM
same,TGI,MDA-MB-435,0.214 µM
same,TGI,PC-3 prostate,> 100 µM
same,TGI,NCI-H460 lung,4.69 µM
same,TGI,MCF7 breast,40.6 µM
same,TGI,SF-268 CNS,> 56.2 µM
same,TGI,NCI-H23 lung,> 21.5 µM
same,TGI,SK-MEL-2 melanoma,2.49 µM
same,TGI,SR leukemia,> 5.04 µM
same,TGI,SK-MEL-28 melanoma,> 100 µM
same,TGI,COLO 205 colon,0.927 µM
same,TGI,DMS 114 small cell lung,2.77 µM
same,TGI,CCRF-CEM leukemia,> 66.2 µM
same,TGI,DLD-1 colon,> 100 µM
CCN(CC)C(=O)c1cc(OC(C)C)ccc1-c1c(C)cc(OC(C)C)c(OC)c1OC,TGI,A549 NSCLC,> 100 µM
same,TGI,NCI-H522 lung,> 100 µM
same,TGI,EKVX NSCLC,> 100 µM
same,TGI,SW-620 colon,> 100 µM
same,TGI,RPMI-8226 leukemia,> 100 µM
same,TGI,DMS 273 small cell lung,> 100 µM
same,TGI,ACHN renal,> 100 µM
same,TGI,SN12C renal,> 100 µM
same,TGI,UO-31 renal,> 100 µM
same,TGI,LOX IMVI melanoma,> 100 µM
same,TGI,SNB-19 CNS,> 100 µM
same,TGI,SK-MEL-5 melanoma,> 100 µM
same,TGI,K-562 leukemia,> 100 µM
same,TGI,HCC-2998 colon,> 100 µM
same,TGI,NCI-H226 lung,> 100 µM
same,TGI,MALME-3M melanoma,> 100 µM
same,TGI,MOLT-4 leukemia,> 100 µM
same,TGI,KM20L2 colon,> 100 µM
same,TGI,M14 melanoma,> 100 µM
same,TGI,OVCAR-8 ovarian,> 100 µM
same,TGI,U251 CNS,> 100 µM
same,TGI,KM12 colon,> 100 µM
same,TGI,OVCAR-4 ovarian,> 100 µM
same,TGI,TK-10 renal,> 100 µM
same,TGI,HCT-15 colon,> 100 µM
same,TGI,SF-539 CNS,> 100 µM
same,TGI,CAKI-1 renal,> 100 µM
same,TGI,UACC-62 melanoma,> 100 µM
same,TGI,SK-OV-3 ovarian,> 100 µM
same,TGI,HCT-116 colon,> 100 µM
same,TGI,OVCAR-3 ovarian,> 100 µM
same,TGI,HL-60(TB) leukemia,96.4 µM
same,TGI,HT29 colon,> 100 µM
same,TGI,OVCAR-5 ovarian,> 100 µM
same,TGI,RXF 393 renal,> 100 µM
same,TGI,HOP-62 NSCLC,> 100 µM
same,TGI,IGROV1 ovarian,> 100 µM
same,TGI,NCI-H460 lung,> 100 µM
same,TGI,SF-268 CNS,> 100 µM
same,TGI,NCI-H23 lung,> 100 µM
same,TGI,SK-MEL-2 melanoma,> 100 µM
same,TGI,SR leukemia,> 100 µM
same,TGI,SK-MEL-28 melanoma,> 100 µM
same,TGI,COLO 205 colon,> 100 µM
same,TGI,DMS 114 small cell lung,> 100 µM
same,TGI,XF 498 CNS,73.9 µM
same,TGI,CCRF-CEM leukemia,> 100 µM
same,TGI,DLD-1 colon,> 100 µM

# Source: PubChem BioAssay (NCI)
